Experimental data: US20040126437A1, “Typing natural products” (priority 2000, published 2004)
Converted amounts (≈) assume the structure as drawn.

What was measured:
[1] = system: Escherichia coli; experiment: Antibacterial activity, inhibition halos in culture; format: cell-based
Description: (§1) The insulated compounds DCBEN, DHCA, E and mixture of E+DPB have their antibacterial properties tested in cultures of E.coli, Pseudomonas aeruginosa, Staphylococcus aureus and Streptococcus faecalis. Inhibition halos (in mm) and the obtained data recorded as in FIG. 1.
(§2) Antibacterial activity of the compounds K, G1, G2 e L2 has been evaluated in cultures of E.coli, Pseudomonas aeruginosa, Staphylococcus aureus and Streptococcus faecalis. Inhibition halos have been measured (mm) and the data recorded as in FIG. 1. S.aureus, S.faecalis e E.coli, are sensitive to the tested compounds, just varying the halos, the compound G2 has the most toxity in cultures of S.aureus e S.faecalis. None of the tested compounds had effect in P.aeruginosa.

[2] = system: Pseudomonas aeruginosa; experiment: as above; format: cell-based
Description: as §1, §2

[3] = system: Staphylococcus aureus; experiment: as above; format: cell-based; conditions: Staphylococcus aureus culture
Description: as §1, §2

[4] = system: Streptococcus faecalis; experiment: as above; format: cell-based; conditions: Streptococcus faecalis culture
Description: as §1, §2

[5] = system: T. cruzi trypomastigotes; experiment: Effects against T. cruzi trypomastigotes cultures; format: cell-based, Trypanosoma cruzi
Experimental: FIG. 2 are recorded ID50 data related to trypomastigotes cultures (one of the growing stages of Trypanosoma cruzi (T.cruzi)) also to the compounds DCBEN, DHCA, E and mixture E+DPB and the effects of said compounds extracted from propolis trypomastigotes of T.cruzi (in mg/mL). […] The same result for Violet Crystal is 0.205 mg/mL, as previously mentioned. The results for insulated compounds are greater than the Violet Crystal.

[6] = system: Microsporeum gypseum; conditions: cited from earlier work
[7] = system: A.benhamiae; conditions: cited from earlier work
[8] = system: B.subtilis; conditions: cited from earlier work
[9] = system: Corynebacterium equii; conditions: cited from earlier work
[10] = system: Micrococcus lysodeikticus; conditions: cited from earlier work
[11] = system: Pseudomonas aeruginosa; conditions: cited from earlier work
[12] = system: Mycobacterium smegmatis; conditions: cited from earlier work
[13] = system: Mycobaterium phlei; conditions: cited from earlier work
[14] = system: Staphylococcus aureus; conditions: cited from earlier work
[15] = system: Staphylococcus epidermidis; conditions: cited from earlier work
[16] = system: Thermoactinomyces intermedius; conditions: cited from earlier work
[17] = system: fibrosarcoma (line HT-1080); conditions: fibrosarcoma line HT-1080; cited from earlier work
[18] = system: uterus colon carcinoma (line L5-26); conditions: uterus colon carcinoma line L5-26; cited from earlier work

In the case of `CC(C)=CCc1cc(C=CC(=O)O)cc(CC=C(C)C)c1O` [DHCA, 3,5-diprenyl-4-hydroxycinnamic acid], the “Antibacterial effect in words” value ([1]; E.coli culture) is reported as “did not present inhibition activity”, the “Antibacterial activty, inhibition halo” value ([1]; Escherichia coli culture) is reported as “Ø” and the “Antibacterial activty, inhibition halo” value [2] is reported as “Ø”. For the same compound, the “Antibacterial activty, inhibition halo” value [3] was “+ (+ halo < or = to 8 mm)”, the “Antibacterial activty, inhibition halo” value [4] was “+ (+ halo < or = to 8 mm)” and the ID50/24 h [5] was 932 ± 46 µg/mL (≈ 3100 µM). For the same compound, the MIC [6] was 7,8 μg/mL, the MIC [7] was 15,6 μg/mL and the CIM [8] was 31.3 µg/mL. For the same compound, the CIM [9] was 31.3 μg/m/L, the CIM [10] was 31.3 µg/mL and the MIC [11] was 31.3 µg/mL (≈ 104 µM). The MIC [12] was 31.3 µg/mL (≈ 104 µM), the MIC [13] was 62.5 µg/mL (≈ 208 µM) and the MIC [14] was 62.5 µg/mL (≈ 208 µM). For the same compound, the CIM [15] was 62.5 µg/mL, the MIC [16] was 62.5 µg/mL (≈ 208 µM) and the “ED50 (cytotoxic dosage—50%)” value [17] was 45.47 µg/mL (≈ 151 µM). The “ED50 (cytotoxic dosage—50%)” value [18] was 59,32 μg/mL.
